Laboratory results published in patent US8952024B2, “Herbicidal pyrimidone derivatives” (E I du Pont de Nemours and Company, priority 2009, dated 2015).

How the values were obtained:
Assay in all cases: Test B pre-/postemergence plant response
Format in all cases: in vivo
[1] = test system: downy bromegrass (Bromus tectorum); conditions: for Plant response rating, Bromegrass, Downy: Postemergence
Method in brief: (§1)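 Greenhouse herbicide screen. Pre- and postemergence (1- to 4-leaf) spray of compound in solvent/surfactant mixture; loam–sand soil for pre, peat/vermiculite medium for post. Visual control rating 0–100 at 13 to 15 days after treatment.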

[2] = test system: giant foxtail (Setaria faberii); conditions: Postemergence
Method in brief: as §1

[3] = test system: goosegrass (Eleusine indica); conditions: Postemergence
Method in brief: as §1

[4] = test system: green foxtail (Setaria viridis); conditions: Postemergence
Method in brief: as §1

[5] = test system: johnsongrass (Sorghum halepense); conditions: Postemergence
Method in brief: as §1

kochia (Kochia scoparia) = conditions: Postemergence
Method in brief: as §1

[6] = test system: lambsquarters (Chenopodium album); conditions: Postemergence
Method in brief: as §1

[7] = test system: large crabgrass (Digitaria sanguinalis); conditions: Postemergence
Method in brief: as §1

[8] = test system: pigweed (Amaranthus retroflexus); conditions: Postemergence
Method in brief: as §1

[9] = test system: velvetleaf (Abutilon theophrasti); conditions: Postemergence
Method in brief: as §1

[10] = test system: wheat (Triticum aestivum); conditions: Postemergence
Method in brief: as §1

[11] = test system: woolly cupgrass (Eriochloa villosa); conditions: Postemergence
Method in brief: as §1

[12] = test system: yellow nutsedge (Cyperus esculentus); conditions: Postemergence
Method in brief: as §1

[13] = 31 g ai/ha, 0 to 100 scale (0 no effect, 100 complete control)
[14] = 125 g ai/ha, scale 0 to 100 (0 no effect, 100 complete control)
[15] = 250 g ai/ha, scale 0 to 100 (0 no effect, 100 complete control), 13 to 15 days
[16] = 62 g ai/ha, scale 0 to 100 (0 no effect, 100 complete control)

In the case of CCCn1c(-c2cccc(Cl)c2)ncc(C(=O)C2=C(O)CCCC2=O)c1=O [Compound 190], the “Bromegrass, Downy plant response rating (0 to 100 scale)” value ([1]; 62 g ai/ha, postemergence, 0 is no effect, 100 is complete control, 13 to 15 days) is reported as 30, the “Plant response rating, Bromegrass, Downy” value [1, 13] is reported as 5 and the “Plant response rating, Bromegrass, Downy” value [1, 14] is reported as 35. The “Plant response rating, Bromegrass, Downy” value [1, 15] was 35, the “Plant response rating, Foxtail, Giant” value [2, 13] was 70 and the “Plant response rating, Foxtail, Giant” value [2, 14] was 90. The “Plant response rating, Foxtail, Giant” value [2, 15] was 95, the “Plant response rating, Goosegrass” value [3, 13] was 70 and the “Plant response rating, Goosegrass” value [3, 14] was 80. For the same compound, the “Plant response rating, Goosegrass” value [3, 15] was 98, the “Plant response rating, Foxtail, Green” value [4, 13] was 25 and the “Plant response rating, Foxtail, Green” value [4, 14] was 45. The “Plant response rating, Foxtail, Green” value [4, 15] was 70, the “Plant response rating, Johnsongrass” value [5, 13] was 60 and the “Plant response rating, Johnsongrass” value [5, 14] was 75. For the same compound, the “Plant response rating, Johnsongrass” value [5, 15] was 80, the “Plant response rating, Kochia” value (kochia (Kochia scoparia); [13]) was 0 and the “Plant response rating, Kochia” value (kochia (Kochia scoparia); [14]) was 98. For the same compound, the “Plant response rating, Kochia” value (kochia (Kochia scoparia); [15]) was 98, the “Plant response rating, Lambsquarters” value [6, 13] was 80 and the “Plant response rating, Lambsquarters” value [6, 14] was 100. The “Plant response rating, Lambsquarters” value [6, 15] was 100, the “Plant response rating, Crabgrass, Large” value [7, 13] was 60 and the “Plant response rating, Crabgrass, Large” value [7, 14] was 80. The “Plant response rating, Crabgrass, Large” value [7, 15] was 90, the “Plant response rating, Pigweed” value [8, 13] was 65 and the “Plant response rating, Pigweed” value [8, 14] was 100. The “Plant response rating, Pigweed” value [8, 15] was 100, the “Plant response rating, Velvetleaf” value [9, 13] was 100 and the “Plant response rating, Velvetleaf” value [9, 14] was 100. For the same compound, the “Plant response rating, Velvetleaf” value [9, 15] was 100, the “Plant response rating, Wheat” value [10, 13] was 0 and the “Plant response rating, Wheat” value [10, 14] was 30. For the same compound, the “Plant response rating, Wheat” value [10, 15] was 30, the “Plant response rating, Cupgrass, Woolly” value [11, 13] was 75 and the “Plant response rating, Cupgrass, Woolly” value [11, 14] was 80. The “Plant response rating, Cupgrass, Woolly” value [11, 15] was 85, the “Plant response rating, Nutsedge, Yellow” value [12, 13] was 35 and the “Plant response rating, Nutsedge, Yellow” value [12, 14] was 65. For the same compound, the “Plant response rating, Nutsedge, Yellow” value [12, 15] was 75.

In the case of Cc1cc(-n2c(-c3cccc(F)c3)ncc(C(=O)C3=C(O)CCCC3=O)c2=O)ccc1F [Compound 191], the “Plant response rating, Bromegrass, Downy” value [1, 13] is reported as 35, the “Plant response rating, Bromegrass, Downy” value [1, 16] is reported as 40 and the “Plant response rating, Bromegrass, Downy” value [1, 14] is reported as 50. The “Plant response rating, Bromegrass, Downy” value [1, 15] was 75, the “Plant response rating, Foxtail, Giant” value [2, 13] was 100 and the “Plant response rating, Foxtail, Giant” value [2, 16] was 100. The “Plant response rating, Foxtail, Giant” value [2, 14] was 100, the “Plant response rating, Foxtail, Giant” value [2, 15] was 100 and the “Plant response rating, Goosegrass” value [3, 13] was 95. For the same compound, the “Plant response rating, Goosegrass” value [3, 16] was 98, the “Plant response rating, Goosegrass” value [3, 14] was 100 and the “Plant response rating, Goosegrass” value [3, 15] was 100. For the same compound, the “Plant response rating, Foxtail, Green” value [4, 13] was 40, the “Plant response rating, Foxtail, Green” value [4, 16] was 55 and the “Plant response rating, Foxtail, Green” value [4, 14] was 80. For the same compound, the “Plant response rating, Foxtail, Green” value [4, 15] was 98, the “Plant response rating, Johnsongrass” value [5, 13] was 70 and the “Plant response rating, Johnsongrass” value [5, 16] was 100. The “Plant response rating, Johnsongrass” value [5, 14] was 100, the “Plant response rating, Johnsongrass” value [5, 15] was 100 and the “Plant response rating, Kochia” value (kochia (Kochia scoparia); [13]) was 5. The “Plant response rating, Kochia” value (kochia (Kochia scoparia); [16]) was 10, the “Plant response rating, Kochia” value (kochia (Kochia scoparia); [14]) was 25 and the “Plant response rating, Kochia” value (kochia (Kochia scoparia); [15]) was 35. The “Plant response rating, Lambsquarters” value [6, 13] was 75, the “Plant response rating, Lambsquarters” value [6, 16] was 80 and the “Plant response rating, Lambsquarters” value [6, 14] was 98. The “Plant response rating, Lambsquarters” value [6, 15] was 100, the “Plant response rating, Crabgrass, Large” value [7, 13] was 85 and the “Plant response rating, Crabgrass, Large” value [7, 16] was 100. The “Plant response rating, Crabgrass, Large” value [7, 14] was 100, the “Plant response rating, Crabgrass, Large” value [7, 15] was 100 and the “Plant response rating, Pigweed” value [8, 13] was 80. The “Plant response rating, Pigweed” value [8, 16] was 85, the “Plant response rating, Pigweed” value [8, 14] was 98 and the “Plant response rating, Pigweed” value [8, 15] was 100. The “Plant response rating, Velvetleaf” value [9, 13] was 75, the “Plant response rating, Velvetleaf” value [9, 16] was 80 and the “Plant response rating, Velvetleaf” value [9, 14] was 90. For the same compound, the “Plant response rating, Velvetleaf” value [9, 15] was 100, the “Plant response rating, Wheat” value [10, 13] was 35 and the “Plant response rating, Wheat” value [10, 16] was 40. The “Plant response rating, Wheat” value [10, 14] was 55, the “Plant response rating, Wheat” value [10, 15] was 65 and the “Plant response rating, Cupgrass, Woolly” value [11, 13] was 85. For the same compound, the “Plant response rating, Cupgrass, Woolly” value [11, 16] was 90, the “Plant response rating, Cupgrass, Woolly” value [11, 14] was 90 and the “Plant response rating, Cupgrass, Woolly” value [11, 15] was 98. For the same compound, the “Plant response rating, Nutsedge, Yellow” value [12, 13] was 40, the “Plant response rating, Nutsedge, Yellow” value [12, 16] was 40 and the “Plant response rating, Nutsedge, Yellow” value [12, 14] was 55. The “Plant response rating, Nutsedge, Yellow” value [12, 15] was 70.

For O=C1CCCC(O)=C1C(=O)c1cnc(-c2ccc(F)cc2)n(C2CCCCC2)c1=O [Compound 197], the “Plant response rating, Bromegrass, Downy” value [1, 13] was 15, the “Plant response rating, Bromegrass, Downy” value [1, 16] was 15 and the “Plant response rating, Bromegrass, Downy” value [1, 14] was 30. The “Plant response rating, Bromegrass, Downy” value [1, 15] was 30, the “Plant response rating, Foxtail, Giant” value [2, 13] was 85 and the “Plant response rating, Foxtail, Giant” value [2, 16] was 95. For the same compound, the “Plant response rating, Foxtail, Giant” value [2, 14] was 98, the “Plant response rating, Foxtail, Giant” value [2, 15] was 100 and the “Plant response rating, Goosegrass” value [3, 13] was 85. The “Plant response rating, Goosegrass” value [3, 16] was 98, the “Plant response rating, Goosegrass” value [3, 14] was 100 and the “Plant response rating, Goosegrass” value [3, 15] was 100. For the same compound, the “Plant response rating, Foxtail, Green” value [4, 13] was 5, the “Plant response rating, Foxtail, Green” value [4, 16] was 30 and the “Plant response rating, Foxtail, Green” value [4, 14] was 50. The “Plant response rating, Foxtail, Green” value [4, 15] was 70, the “Plant response rating, Johnsongrass” value [5, 13] was 70 and the “Plant response rating, Johnsongrass” value [5, 16] was 85. For the same compound, the “Plant response rating, Johnsongrass” value [5, 14] was 95, the “Plant response rating, Johnsongrass” value [5, 15] was 100 and the “Plant response rating, Kochia” value (kochia (Kochia scoparia); [13]) was 65. For the same compound, the “Plant response rating, Kochia” value (kochia (Kochia scoparia); [16]) was 80, the “Plant response rating, Kochia” value (kochia (Kochia scoparia); [14]) was 95 and the “Plant response rating, Kochia” value (kochia (Kochia scoparia); [15]) was 98. The “Plant response rating, Lambsquarters” value [6, 13] was 95, the “Plant response rating, Lambsquarters” value [6, 16] was 100 and the “Plant response rating, Lambsquarters” value [6, 14] was 100. For the same compound, the “Plant response rating, Lambsquarters” value [6, 15] was 100, the “Plant response rating, Crabgrass, Large” value [7, 13] was 75 and the “Plant response rating, Crabgrass, Large” value [7, 16] was 85. The “Plant response rating, Crabgrass, Large” value [7, 14] was 98, the “Plant response rating, Crabgrass, Large” value [7, 15] was 100 and the “Plant response rating, Pigweed” value [8, 13] was 80. The “Plant response rating, Pigweed” value [8, 16] was 90, the “Plant response rating, Pigweed” value [8, 15] was 100 and the “Plant response rating, Velvetleaf” value [9, 13] was 80. For the same compound, the “Plant response rating, Velvetleaf” value [9, 16] was 80, the “Plant response rating, Velvetleaf” value [9, 15] was 100 and the “Plant response rating, Wheat” value [10, 13] was 0. The “Plant response rating, Wheat” value [10, 16] was 0, the “Plant response rating, Wheat” value [10, 15] was 40 and the “Plant response rating, Cupgrass, Woolly” value [11, 13] was 70. The “Plant response rating, Cupgrass, Woolly” value [11, 16] was 85, the “Plant response rating, Cupgrass, Woolly” value [11, 14] was 90 and the “Plant response rating, Cupgrass, Woolly” value [11, 15] was 98. The “Plant response rating, Nutsedge, Yellow” value [12, 13] was 45, the “Plant response rating, Nutsedge, Yellow” value [12, 16] was 55 and the “Plant response rating, Nutsedge, Yellow” value [12, 14] was 65. The “Plant response rating, Nutsedge, Yellow” value [12, 15] was 75.
